Results taken from USRE50977E1, “Methods for production of platelets from pluripotent stem cells and compositions thereof” (Astellas Institute for Regenerative Medicine, priority 2012, dated 2026).

Tests used:
[1] = system: iPS derived megakaryocytes; assay: Platelet formation in static culture with MMP inhibitors; assay type: cell-based, human; conditions: for protection of platelets (CD42b shedding) compared with GM6001: comparative study of specific MMP inhibitors
Description: The peak of platelet production is determined by measuring platelet content in the culture, for example on a daily basis for several days. It is typically 4-7 days after the beginning of the MLP differentiation culture period, although it may be longer or it may be shifted. To induce MK maturation and platelet formation, freshly collected or thawed MKPs were cultured in MK maturation medium (MK-M) containing […]+TPO, SCF, IL-6 and […] Megakaryocyte Expansion Supplement) and heparin (5 U/ml) in ultralow attachment plates (Corning). 5 μM of Y-27632 was added for the first 3 days of culture, and cells were incubated in 7% CO2 at 39° C. Cell morphology and density were monitored daily and fresh medium was added to maintain 10^6 cells/ml for the first 4 days. The maturation of MKs from MKPs was monitored using flow cytometric analysis of CD41a, CD42b, and CD235a. Once pro-platelet morphology was observed, medium samples were taken daily to determine platelet yield using CD41a/CD42b double staining by flow cytometric analysis. Platelets were collected for 3-5 consecutive days during the peak of production. To extract platelets, large MKs were removed first using low speed centrifugation (50×g for 10 min), and proplatelets and small MKs were removed by further 10 min centrifugation at 300×g. The iPS-platelets in the supernatants were collected using higher g force (1000-2500×g) in the presence of PGE1 (1 μM). The collected iPS-platelet pellets were then subjected to further purification using a BSA gradient centrifugation as described previously (Robert et al., 2012). Briefly, iPS-platelet pellets were re-suspended with 1× CGS buffer. Platelets were applied in the buffer on top of a BSA gradient with BSA concentration of (weight/volume) of 12, 10, 7, 5 and 2%. The sample was centrifuged at 82×g for 15 min with no break, then the platelet-rich fraction was collected. iPS-platelets purified from BSA gradient were stored or transported at room temperature in MK-M for further analyses.

[2] = system: MKs derived from HA-iPS; assay: Platelet generation under constant shear force in microfluidic device, HA-iPS derived MKs; assay type: cell-based, human
Description: Matured MKs, derived from HA-iPS and MA09 hES lines, were used. Equal numbers of MKs suspended in MK-specific medium were loaded into a microfluidic device in the presence or absence of 20 μM MMP inhibitor GM6001. Constant shear force was applied to the MKs throughout the culture period. MK-medium downstream of MKs was collected at 30 minute intervals for a period of 6 hours. Platelet number and purity (i.e., percentage of total cells that are CD41a^+CD42b^+) in the collected media were measured using flow cytometer.

[3] = system: c-myc gene expression; assay: Q-PCR of MYC in MKPs treated with iBET151; assay type: cell-based, human; conditions: 0.1 and 0.25 μM
Description: (§1) As also described above in Example 10, we therefore determined whether suppression of c-myc expression would enhance MK lineage differentiation/expansion and simultaneously prohibit myeloid and other lineage differentiation/expansion. MKP Day 6+3 cultures were treated with non-cytotoxic doses of a c-myc inhibitor, iBET151 (0.1 and 0.25 μM) for 24 hours and then harvested for analysis. […] CD14+ myeloid cells were decreased from about 12% in control cultures to less than 5% and 3% in cultures treated with iBET151 at 0.1 and 0.25 μM, respectively.

[4] = system: human and murine MLL-fusion leukemic cell lines; conditions: induction of early cell cycle arrest and apoptosis; cited from earlier work
[5] = system: GATA1 gene expression; assay: Q-PCR of GATA1 in MKPs treated with iBET151; assay type: cell-based, human; conditions: 0.1 and 0.25 μM
Description: as §1

[6] = system: cells undergoing in vitro megakaryopoiesis; assay: iBET151 treatment of MKP Day 6+3 cultures; assay type: cell-based, human; conditions: for increase of MKP outputs vs untreated controls: 24 hours; for CD14+ myeloid cells: D6+3 to D6+4, control about 12%; for number/formation of CD14+ myeloid cells: 0.1 and 0.25 μM
Description: To promote early MK progenitor production, cells were cultured in MK-Specific Progenitor Expansion medium (EXP-M) containing STEMdiff APEL Medium+TPO (25 ng/ml), SCF (25 ng/ml), Flt-3 ligand (25 ng/ml), IL-3 (10 ng/ml), IL-6 (10 ng/ml) and heparin (5 U/ml) for up to 7 days. Non-adherent MK Progenitors (MKPs) were constantly released into the medium and harvested for 4-5 consecutive days in EXP-M. Daily harvests were cryo-preserved in animal protein-free defined cryopreservation CryoStor™ medium. Samples of MKPs were also subjected to flow cytometry for analysis of CD41a, CD42b, CD31, CD34, CD43, CD13, CD235a, and CD14 cell surface expression.
as §1

[7] = constant shear force, 20 μM added at beginning of culture, vs DMSO

## CNC(=O)[C@H](Cc1c[nH]c2ccccc12)NC(=O)[C@@H](CC(=O)NO)CC(C)C [GM6001]
[1]; added in MK culture, control 45%
  CD41b+/CD42b+ platelets: 59%
[2]; [7]
  platelet purity (percentage CD41a+CD42b+): significantly improved
  platelet yield: significantly improved
[2]; shear force culture, FIG. 23
  platelet numbers as a function of time: significantly more platelets were generated

## COc1ccc(S(=O)(=O)N2Cc3ccccc3C[C@@H]2C(=O)NO)cc1 [MMP8-I, (3R)-(+)-[2-(4-Methoxybenzenesulfonyl)-1,2,3,4-tetrahydroisoquinoline-3-hydroxamate]]
[1]; MK culture
  total number of CD41a+CD42b+ platelets, increase vs control: ~ 46%
[1]
  protection of platelets (CD42b shedding) compared with GM6001: superior shedding protection than GM
[1]; listed as MMP8 inhibitor
  protection of platelets (CD42b shedding) compared with GM6001: more potency than GM6001
[1]; static culture
  CD41a+CD42b+ platelets produced as compared to GM6001: Significantly more
  purity gain over GM6001-treated cultures: approximately 10%
[1]; static culture, added at the peak of platelet production, control 43.7%
  purity of iPS-derived platelets: 65.5%

## COc1cc2c(cc1-c1c(C)noc1C)ncc1[nH]c(=O)n([C@H](C)c3ccccn3)c12 [iBET151]
[3]
  c-myc (MYC) mRNA expression: dose-dependent downregulation
[3]; listed as i-BET-151
  c-myc (MYC) mRNA expression: dose-dependent inhibition
[4]
  efficacy against leukemic cell lines: profound efficacy
[5]
  GATA1 mRNA expression: up-regulation
[5]; listed as i-BET-151
  GATA1 mRNA expression: up-regulated
[6]; 0.1 μM
  increase of MKP outputs vs untreated controls: ≈ 2 fold
  CD14+ myeloid cells: less than 5%
[6]; 0.25 μM
  increase of MKP outputs vs untreated controls: ~4 fold
  CD14+ myeloid cells: < 3%
[6]
  number/formation of CD14+ myeloid cells: inhibited
[6]; listed as i-BET-151
  number/formation of CD14+ myeloid cells: dose-dependent decrease
[6]; high dose
  apoptosis: massive apoptosis
[6]; lower doses, micromolar or submicromolar range
  numbers of MK progenitors: increased numbers of MK progenitors
